In US20230293517A1, “ANTAGONIST COMPOUNDS” (AdoRx Therapeutics Limited, priority 2020, published 2023) one finds Ki data, which are given here for 20 compounds.

In experiment [1] the target is human Adenosine A2b receptor (Homo sapiens (Human), UniProt P29275). The experiment can be described thus: Adenosine receptor TR-FRET binding assay (A2b). As for the experimental part:
(§1) Biological Example 1—Adenosine Receptor Time-Resolved Fluorescence Resonance Energy Transfer (TRFRET) Binding Assay
(§2) All FRET binding experiments were conducted at room temperature in white 384-well plates, in assay binding buffer containing 1×LabMed (Cisbio, France), 100 μg/mL saponin, 1% DMSO and 0.02% pluronic acid. Binding of the fluorescently labelled Adenosine receptor antagonist XAC (CA200645, FRET acceptor) to terbium-labelled A1, A2a, A2b and A3 adenosine receptors (FRET donors) was detected by time-resolved FRET due to the close proximity of the donor and acceptor in a binding event. To investigate the ability of unlabelled test compounds to bind to Adenosine A1, A2a, A2b and A3 receptors, dose response curves were constructed that determined the ability of a range of concentrations to inhibit the binding of 30 nM CA200645 to the A2b receptor and 100 nM CA200645 to the A1, A2a, and A3 receptor.
(§3) Serial dilution (1:3 dilutions) of test compounds in neat DMSO and transfer of a 400 nL sample of test compound into the assay plate was carried out using the Mosquito (TTP Labtech, UK). The compound samples were incubated for 2 hours at room temperature with a fixed concentration of CA200645 defined for each receptor (see above) and CHO cell membranes containing the human Adenosine A1 (0.5 μg/well), A2a (0.3 μg/well), A2b (1 μg/well) or A3 (1 μg/well) receptor in 40 μL of assay buffer. Total and non-specific binding of CA200645 was determined in the absence and presence of 10 μM XAC, respectively. Following 2 hours incubation, the level of CA200645 binding was detected on a Pherastar FSX (BMG Labtech, Germany) using standard TR-FRET settings. The terbium donor was excited with three laser flashes at a wavelength of 337 nm, and donor and acceptor emission was detected at 620 nm and 665 nm wavelengths, respectively. FRET ratios were obtained by multiplying the acceptor/donor ratio value by 10,000. Specific binding was determined by subtracting the non-specific binding FRET ratio from the total binding FRET ratio. Compound IC50 curves were analysed using GraphPad Prism 7.0 (GraphPad, USA) and Ki affinity values were determined from the obtained IC50 values using the method of Cheng and Prusoff.
On the technique in general: TR-FRET usually uses a lanthanide donor and a delayed reading to cut background.

Experiment [2] addresses human Adenosine A1 receptor (Homo sapiens (Human), UniProt P30542). The experiment in a line: Adenosine receptor TR-FRET binding assay (A1). The conditions noted are these: inhibition of binding of 100 nM CA200645, CHO cell membranes. On the procedure:
as §1, §2, §3

For experiment [3], the target named is human Adenosine A2a receptor (Homo sapiens (Human), UniProt P29274). The experiment can be described thus: Adenosine receptor TR-FRET binding assay (A2a). The conditions noted are these: inhibition of binding of 100 nM CA200645, CHO cell membranes. As for the experimental part:
as §1, §2, §3

The target in experiment [4] is human Adenosine A3 receptor (Homo sapiens (Human), UniProt P0DMS8). The experiment in a line: Adenosine receptor TR-FRET binding assay (A3). The conditions noted are these: inhibition of binding of 100 nM CA200645, CHO cell membranes. As for the experimental part:
as §1, §2, §3

Setting [5] is: TR-FRET, inhibition of binding of 30 nM CA200645, CHO cell membranes.

Each structure is given as a SMILES string. Counter-ions that a name gives are not always drawn. Like-named read-outs stand apart in the source and are kept apart here.

human Adenosine A3 receptor, sequence (P0DMS8 whole entry): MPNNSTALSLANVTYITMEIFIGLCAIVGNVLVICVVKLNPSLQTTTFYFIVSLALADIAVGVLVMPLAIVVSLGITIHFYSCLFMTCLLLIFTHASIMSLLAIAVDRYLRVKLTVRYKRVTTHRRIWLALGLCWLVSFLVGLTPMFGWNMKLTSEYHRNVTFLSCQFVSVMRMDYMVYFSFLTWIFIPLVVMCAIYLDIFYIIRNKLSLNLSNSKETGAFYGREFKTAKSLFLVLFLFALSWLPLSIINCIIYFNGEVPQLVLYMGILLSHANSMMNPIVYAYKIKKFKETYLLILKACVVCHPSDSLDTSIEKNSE
human Adenosine A1 receptor, sequence (P30542 whole entry): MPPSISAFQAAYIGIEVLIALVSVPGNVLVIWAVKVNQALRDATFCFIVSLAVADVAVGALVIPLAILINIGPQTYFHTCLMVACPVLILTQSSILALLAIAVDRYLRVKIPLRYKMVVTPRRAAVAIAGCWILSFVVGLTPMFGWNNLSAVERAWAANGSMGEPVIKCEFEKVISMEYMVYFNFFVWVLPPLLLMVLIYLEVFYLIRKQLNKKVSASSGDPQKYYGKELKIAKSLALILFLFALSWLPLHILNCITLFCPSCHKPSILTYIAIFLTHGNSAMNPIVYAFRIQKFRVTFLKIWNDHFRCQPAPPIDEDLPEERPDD
human Adenosine A2b receptor, sequence (P29275 whole entry): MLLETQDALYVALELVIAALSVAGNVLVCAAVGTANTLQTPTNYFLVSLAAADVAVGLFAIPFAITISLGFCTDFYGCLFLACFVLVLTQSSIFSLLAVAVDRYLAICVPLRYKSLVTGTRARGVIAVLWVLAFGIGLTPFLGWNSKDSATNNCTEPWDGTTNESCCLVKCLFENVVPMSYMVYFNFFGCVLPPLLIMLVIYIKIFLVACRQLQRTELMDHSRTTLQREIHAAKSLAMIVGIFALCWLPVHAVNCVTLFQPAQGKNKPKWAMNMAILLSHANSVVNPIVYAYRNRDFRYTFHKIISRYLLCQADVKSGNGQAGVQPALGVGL
human Adenosine A2a receptor, sequence (P29274 whole entry): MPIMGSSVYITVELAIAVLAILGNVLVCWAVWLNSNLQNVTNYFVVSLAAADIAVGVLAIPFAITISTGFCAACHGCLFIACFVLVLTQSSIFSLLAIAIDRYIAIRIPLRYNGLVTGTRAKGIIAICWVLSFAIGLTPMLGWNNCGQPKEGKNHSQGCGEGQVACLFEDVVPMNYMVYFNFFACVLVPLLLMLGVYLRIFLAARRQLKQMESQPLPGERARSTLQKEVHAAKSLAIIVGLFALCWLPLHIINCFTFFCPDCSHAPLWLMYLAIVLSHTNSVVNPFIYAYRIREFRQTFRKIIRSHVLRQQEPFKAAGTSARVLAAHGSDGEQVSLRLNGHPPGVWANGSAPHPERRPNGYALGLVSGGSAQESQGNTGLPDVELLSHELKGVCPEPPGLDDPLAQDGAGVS

As for `Cc1cc(-c2sc(NC(=O)N3CCOCC3)nc2-c2cccc(C#N)c2)cc(Cl)n1` [Example 1, N-[5-(2-Chloro-6-methyl-4-pyridyl)-4-(3-cyanophenyl)thiazol-2-yl]morpholine-4-carboxamide], the Ki (in general, the dissociation constant of the complex between target and ligand, obtained from inhibition or displacement) in experiment [1] (setting [5]) was 1.1 nM; in experiment [2] it was 9 nM; in experiment [3] it was 0.42 nM; in experiment [4], 305 nM.

For the compound `Cc1cc(-c2sc(NC(=O)N3CCC(n4cccn4)CC3)nc2-c2cccc(C#N)c2)cc(C)n1` [Example 6.21, N-[4-(3-Cyanophenyl)-5-(2,6-dimethyl-4-pyridyl)thiazol-2-yl]-4-pyrazol-1-yl-piperidine-1-carboxamide], the Ki in experiment [1] (setting [5]) is 1.3 nM; in experiment [2] it was 6 nM; in experiment [3] it was 0.86 nM; in experiment [4] it was 96 nM.

For the compound `Cc1cc(-c2sc(NC(=O)N3CCN4C(=O)CCCC4C3)nc2-c2cccc(C#N)c2)cc(C)n1` (stereo not shown) [Example 6.43, N-[4-(3-Cyanophenyl)-5-(2,6-dimethyl-4-pyridyl)thiazol-2-yl]-6-oxo-3,4,7,8,9,9a-hexahydro-1H-pyrido[1,2-a]pyrazine-2-carboxamide], the inhibition constant Ki in experiment [1] (setting [5]) came out at 8.2 nM; in experiment [2] it was 51 nM; in experiment [3], 1.12 nM; in experiment [4], 175 nM.

On to `CC(=O)N=S1(=O)CCN(C(=O)Nc2nc(-c3cccc(C#N)c3)c(-c3cc(C)nc(C)c3)s2)CC1` [Example 8, 1-Acetylimino-N-[4-(3-cyanophenyl)-5-(2,6-dimethyl-4-pyridyl)thiazol-2-yl]-1-oxo-1,4-thiazinane-4-carboxamide], for which the Ki in experiment [1] (setting [5]) was found to be 1.8 nM; in experiment [2], 59 nM; in experiment [3], 1.83 nM; in experiment [4] it was 776 nM.

With `Cc1cc(-c2sc(NC(=O)N3CC[S+]([O-])CC3)nc2-c2cccc(C#N)c2)cc(C(F)(F)F)n1` [Example 16.2], the inhibitory constant (Ki) came out at 1.4 nM in experiment [1] (setting [5]), 16 nM in experiment [2], 0.38 nM in experiment [3] and 135 nM in experiment [4].

Regarding `Cc1cc(-c2sc(NC(=O)N3CC4CCC(C3)N4)nc2-c2cccc(C#N)c2)cc(C)n1` [Example 13.11, N-[4-(3-Cyanophenyl)-5-(2,6-dimethyl-4-pyridyl)thiazol-2-yl]-3,8-diazabicyclo[3.2.1]octane-3-carboxamide], the Ki in experiment [1] (setting [5]) was 58.4 nM; in experiment [2] it was 132 nM; in experiment [3] it was 12.9 nM; in experiment [4], 226 nM.

Consider `CNC(=O)C1CCN(C(=O)Nc2nc(-c3cccc(C#N)c3)c(-c3cc(C)nc(C)c3)s2)CC1` [Example 6.28, N1-[4-(3-Cyanophenyl)-5-(2,6-dimethyl-4-pyridyl)thiazol-2-yl]-N4-methyl-piperidine-1,4-dicarboxamide], for which the Ki in experiment [1] (setting [5]) is 3.2 nM; in experiment [2], 32 nM; in experiment [3], 4.84 nM; in experiment [4] it was 226 nM.

For `Cc1cc(-c2sc(NC(=O)N3C[C@@H]4NCCO[C@H]4C3)nc2-c2cccc(C#N)c2)cc(C(F)F)n1` (racemic) [Example 14.1, rac-(4aS,7aS)—N-[4-(3-Cyanophenyl)-5-[2-(difluoromethyl)-6-methyl-4-pyridyl]thiazol-2-yl]-3,4,4a,5,7,7a-hexahydro-2H-pyrrolo[3,4-b][1,4]oxazine-6-carboxamide 2,2,2-trifluoroacetic acid salt], the inhibitory constant (Ki) in experiment [1] is 8.6 nM; in experiment [2] it was 41 nM; in experiment [3], 2.67 nM; in experiment [4] it was 112 nM.

As for `Cc1cc(-c2sc(NC(=O)N3CC4(CCOC(=O)N4)C3)nc2-c2cccc(C#N)c2)cc(C)n1` [Example 6.34, N-[4-(3-Cyanophenyl)-5-(2,6-dimethyl-4-pyridyl)thiazol-2-yl]-6-oxo-7-oxa-2,5-diazaspiro[3.5]nonane-2-carboxamide], the Ki stood at 2.1 nM in experiment [1] (setting [5]), 26 nM in experiment [2], 0.64 nM in experiment [3] and 166 nM in experiment [4].

As for `Cc1cc(-c2sc(NC(=O)N3CC(=O)N[C@H](C)C3)nc2-c2cccc(C#N)c2)cc(C)n1` [Example 6.85, (3R)-N-[4-(3-Cyanophenyl)-5-(2,6-dimethyl-4-pyridyl)thiazol-2-yl]-3-methyl-5-oxo-piperazine-1-carboxamide], the Ki came out at 16 nM in experiment [1] (setting [5]), 44 nM in experiment [2], 12.1 nM in experiment [3] and 216 nM in experiment [4].

Consider `Cc1cc(-c2sc(NC(=O)N3CCC(c4ncon4)CC3)nc2-c2cccc(C#N)c2)cc(C)n1` [Example 6.22, N-[4-(3-Cyanophenyl)-5-(2,6-dimethyl-4-pyridyl)thiazol-2-yl]-4-(1,2,4-oxadiazol-3-yl)piperidine-1-carboxamide], for which the inhibitory constant (Ki) in experiment [1] (setting [5]) is 1.8 nM; in experiment [2], 4 nM; in experiment [3] it was 0.38 nM; in experiment [4], 107 nM.

Regarding `Cc1cc(-c2sc(NC(=O)N3CCS(=O)(=O)CC3)nc2-c2cccc(C#N)c2)cc(C)n1` [Example 4.27, N-[4-(3-Cyanophenyl)-5-(2,6-dimethyl-4-pyridyl)thiazol-2-yl]-1,1-dioxo-1,4-thiazinane-4-carboxamide], the inhibition constant Ki in experiment [1] (setting [5]) turned out to be 0.8 nM; in experiment [2], 6 nM; in experiment [3], 0.1 nM; in experiment [4], 423 nM.

Take `Cc1cc(-c2sc(NC(=O)N3CCC4(COCCN4)C3)nc2-c2cccc(C#N)c2)cc(C)n1` (stereo not shown) [Example 13.9]: the inhibition constant Ki in experiment [1] (setting [5]) was found to be 14.9 nM; in experiment [2] it was 225 nM; in experiment [3] it was 2.01 nM; in experiment [4] it was 646 nM.

As to `Cc1cc(-c2sc(NC(=O)N3CC4(CCOC4)C3)nc2-c2cccc(C#N)c2)cc(C(C)(C)O)n1` [Example 12.1, N-[4-(3-Cyanophenyl)-5-[2-(1-hydroxy-1-methyl-ethyl)-6-methyl-4-pyridyl]thiazol-2-yl]-6-oxa-2-azaspiro[3.4]octane-2-carboxamide], the Ki in experiment [1] (setting [5]) worked out at 3.1 nM; in experiment [2] it was 7 nM; in experiment [3], 0.2 nM; in experiment [4], 1240 nM.

Take `Cc1cc(-c2sc(NC(=O)N3CCC(c4ncc[nH]4)CC3)nc2-c2cccc(C#N)c2)cc(C)n1` [Example 6.25, N-[4-(3-Cyanophenyl)-5-(2,6-dimethyl-4-pyridyl)thiazol-2-yl]-4-(1H-imidazol-2-yl)piperidine-1-carboxamide]: the Ki in experiment [1] (setting [5]) amounted to 1.1 nM; in experiment [2], 2 nM; in experiment [3] it was 1.73 nM; in experiment [4] it was 94 nM.

On to `Cc1cc(-c2sc(NC(=O)N3CCNC[C@@H]3CO)nc2-c2cccc(C#N)c2)cc(C)n1` [Example 13.5, (2R)-N-[4-(3-Cyanophenyl)-5-(2,6-dimethyl-4-pyridyl)thiazol-2-yl]-2-(hydroxymethyl)piperazine-1-carboxamide], for which the Ki in experiment [1] (setting [5]) worked out at 18.8 nM; in experiment [2] it was 84 nM; in experiment [3] it was 9.87 nM; in experiment [4], 226 nM.

As for `Cc1cc(-c2sc(NC(=O)N3C[C@H](C)N[C@@H](C)C3)nc2-c2cccc(C#N)c2)cc(C)n1` [Example 13.3, (3S,5S)-N-[4-(3-Cyanophenyl)-5-(2,6-dimethyl-4-pyridyl)thiazol-2-yl]-3,5-dimethyl-piperazine-1-carboxamide], the figures for the Ki in experiment [1] (setting [5]), in experiment [2] and in experiment [3] were 77 nM, 322 nM and 11.4 nM, respectively.

Turning to `Cc1cc(-c2sc(NC(=O)N3CC(N4CCCC4)C3)nc2-c2cccc(C#N)c2)cc(C)n1` [Example 6.114, N-[4-(3-Cyanophenyl)-5-(2,6-dimethyl-4-pyridyl)thiazol-2-yl]-3-pyrrolidin-1-yl-azetidine-1-carboxamide], the values for the inhibition constant (Ki) in experiment [1] (setting [5]), in experiment [2] and in experiment [3] were 23 nM, 240 nM and 9.95 nM, respectively.

For `Cc1cc(-c2sc(NC(=O)N3CCC4(CC3)CNCCO4)nc2-c2cccc(C#N)c2)cc(C)n1` [Example 7.3, N-[4-(3-Cyanophenyl)-5-(2,6-dimethyl-4-pyridyl)thiazol-2-yl]-1-oxa-4,9-diazaspiro[5.5]undecane-9-carboxamide], the inhibitory constant (Ki) in experiment [1] (setting [5]) was 5.7 nM; in experiment [2], 208 nM; in experiment [3], 1.02 nM.

`Cc1cc(-c2sc(NC(=O)N3CCOCC3C(C)(C)O)nc2-c2cccc(C#N)c2)cc(Cl)n1` (stereo not shown) [Example 3.4]: the Ki in experiment [1] (setting [5]) stood at 14.3 nM; in experiment [3], 14.3 nM; in experiment [4] it was 2050 nM.
